Measured values published in patent US20060100224A1, “Piperidine ouracil used as a medicament for treating bacterial infections” (priority 2002, published 2006).

The molecules below were run against T1, Pol III from S. aureus (PolC) (Staphylococcus aureus, UniProt P0C1P9) (assay: Determination of the IC50 for Polymerase III (PolC, luciferase-coupled pyrophosphate detection)). Conditions: purified PolC ~2 nM, 30° C., 30 min, activated calf thymus DNA.
T1 construct: His tag (pET15b) (N); made in house; host or cells: E. coli BL21(DE3)
T1 sequence (P0C1P9 1-1435): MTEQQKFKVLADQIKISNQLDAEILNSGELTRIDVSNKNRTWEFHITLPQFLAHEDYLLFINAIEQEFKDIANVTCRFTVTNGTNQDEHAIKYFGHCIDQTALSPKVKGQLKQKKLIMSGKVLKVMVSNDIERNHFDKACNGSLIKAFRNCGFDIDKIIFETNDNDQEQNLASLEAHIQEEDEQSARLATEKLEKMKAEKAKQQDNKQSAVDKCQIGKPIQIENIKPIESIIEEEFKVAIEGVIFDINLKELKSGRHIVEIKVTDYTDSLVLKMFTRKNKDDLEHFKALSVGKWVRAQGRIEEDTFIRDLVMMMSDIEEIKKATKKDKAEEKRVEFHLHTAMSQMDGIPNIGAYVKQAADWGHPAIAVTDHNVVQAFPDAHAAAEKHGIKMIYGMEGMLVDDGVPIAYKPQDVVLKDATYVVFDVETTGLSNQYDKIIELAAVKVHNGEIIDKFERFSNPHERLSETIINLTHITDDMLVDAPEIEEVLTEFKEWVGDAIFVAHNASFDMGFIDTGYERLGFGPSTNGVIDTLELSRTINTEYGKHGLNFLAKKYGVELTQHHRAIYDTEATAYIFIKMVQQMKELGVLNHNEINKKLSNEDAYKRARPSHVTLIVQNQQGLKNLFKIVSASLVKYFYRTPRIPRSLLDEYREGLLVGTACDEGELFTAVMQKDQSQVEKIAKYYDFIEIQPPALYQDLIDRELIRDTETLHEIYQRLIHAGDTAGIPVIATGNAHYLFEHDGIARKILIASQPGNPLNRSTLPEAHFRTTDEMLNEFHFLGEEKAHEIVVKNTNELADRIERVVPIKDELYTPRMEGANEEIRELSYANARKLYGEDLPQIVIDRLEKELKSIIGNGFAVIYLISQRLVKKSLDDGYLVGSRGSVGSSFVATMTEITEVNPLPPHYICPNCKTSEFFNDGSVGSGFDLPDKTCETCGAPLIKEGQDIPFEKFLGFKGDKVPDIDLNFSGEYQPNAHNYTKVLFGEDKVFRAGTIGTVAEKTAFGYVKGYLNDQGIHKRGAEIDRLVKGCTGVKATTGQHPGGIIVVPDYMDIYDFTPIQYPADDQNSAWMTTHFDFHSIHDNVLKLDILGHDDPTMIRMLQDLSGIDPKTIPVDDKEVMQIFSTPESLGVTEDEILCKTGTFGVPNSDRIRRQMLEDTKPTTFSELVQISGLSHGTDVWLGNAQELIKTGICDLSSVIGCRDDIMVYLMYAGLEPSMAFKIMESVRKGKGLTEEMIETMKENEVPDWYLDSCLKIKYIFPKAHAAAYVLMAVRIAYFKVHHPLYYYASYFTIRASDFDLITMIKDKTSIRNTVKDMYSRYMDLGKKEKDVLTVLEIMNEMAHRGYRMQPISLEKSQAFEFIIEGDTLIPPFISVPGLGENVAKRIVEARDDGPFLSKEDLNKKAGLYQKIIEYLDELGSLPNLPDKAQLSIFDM
Assay type: biochemical
From the text: Cloning, Expression and Purification of Pol III from S. aureus
To clone polC with an N-terminal His tag, the structural gene polC is amplified from S. aureus genomic DNA with the aid of PCR. The primers SAPol 31 5′-[…]-3′ and SAPolrev 5′-[…]-3′ are used to introduce the NdeI and BamHI restriction cleavage sites respectively in front of and behind the amplified gene. After the PCR product which is 4300 bp in size has been digested with NdeI and BamHI, it is ligated into the vector pET15b (Novagen, USA), which has likewise been digested with NdeI and BamHI, and transformed into E. coli XL-1 Blue.
After transformation into E. coli BL21(DE3), the cells are cultivated for expression of PolC at 30° C. in LB medium with 100 μg/ml ampicillin until the OD595 nm is 0.5, cooled to 18° C. and, after addition of 1 mM IPTG, incubated for a further 20 hours. The cells are harvested by centrifugation, washed once in PBS with 1 mM PMSF and taken up in 50 mM NaH2PO4 pH 8.0, 10 mM imidazole, 2 mM β-mercaptoethanol, 1 mM PMSF, 20% glycerol. The cells are disrupted using a French press at 12,000 psi, the cell detritus is removed by centrifugation ([…]×g, 120 min, 4° C.) and the supernatant is stirred with an appropriate amount of Ni-NTA-agarose (from Quiagen, Germany) at 4° C. for 1 hour. After the gel matrix has been packed into a column it is washed with 50 mM NaH2PO4 pH 8.0, 2 mM β-mercaptoethanol, 20 mM imidazole, 10% glycerol, and the purified protein is then eluted with the same buffer containing 100 mM imidazole. The purified protein is mixed with 50% glycerol and stored at −20° C.
Determination of the IC50 for Polymerase III
The activity of PolC is measured in an enzymatically coupled reaction, with the pyrophosphate formed during the polymerization being converted with the aid of ATP sulfurylase into ATP, which is detected using firefly luciferase. The reaction mixture contains, in a final volume of 50 μl, 50 mM Tris/Cl pH 7.5; 5 mM DTT, 10 mM MgCl2, 30 mM NaCl, 0.1 mg/ml BSA, 10% glycerol, 20 μM each dATP, dTTP, dCTP, 2U/ml activated calf thymus DNA (from Worthington, USA), 20 μM APS and 0.06 mM luciferin. The reaction is started by adding purified PolC in a final concentration of ˜2 nM and is incubated at 30° C. for 30 min. The amount of pyrophosphate formed is then converted into ATP by adding ATP sulfurylase (Sigma, USA) in a final concentration of 5 nM and incubating at 30° C. for 15 min. After addition of 0.2 nM firefly luciferase, the luminescence is measured in a luminometer for 60 s. The IC50 is reported as the concentration of an inhibitor which leads to 50% inhibition of the enzymic activity of PolC.

| IC50 | Compound |
| --- | --- |
| 140 nM | CCc1cc(Nc2cc(=O)n(CC3CCN(C(=O)c4ccno4)CC3)c(=O)[nH]2)ccc1C [Example 9] |
| 330 nM | Cc1ccoc1C(=O)N1CCCC(Cn2c(=O)cc(Nc3ccc4c(c3)CCC4)[nH]c2=O)C1 (stereo not drawn) [Example 39] |
| 90 nM | O=C(c1csnn1)N1CCC(Cn2c(=O)cc(Nc3ccc4c(c3)CCC4)[nH]c2=O)CC1 [Example 13] |
| 340 nM | O=C(c1nc[nH]n1)N1CCCC(Cn2c(=O)cc(Nc3ccc4c(c3)CCC4)[nH]c2=O)C1 (stereo not drawn) [Example 17] |
| 110 nM | Cc1nnsc1-c1nc(C(=O)N2CCC(Cn3c(=O)cc(Nc4ccc5c(c4)CCC5)[nH]c3=O)CC2)cs1 [Example 21] |
| 220 nM | O=C(c1cccnc1)N1CCCC(Cn2c(=O)cc(Nc3ccc4c(c3)CCC4)[nH]c2=O)C1 (stereo not drawn) [Example 26] |
